Assay results from patent US20210100777A1, “HEAT SHOCK PROTEIN (HSP) INHIBITION AND MONITORING EFFECTIVENESS THEREOF” (H. LEE MOFFITT CANCER CENTER AND RESEARCH INSTITUTE, INC., priority 2013, published 2021).

Columns and labels:
[1] = system: vemurafenib resistant melanoma cell lines grown as 3D collagen implanted spheroids; assay: 3D spheroid assay; format: cell-based; settings: 1 μM, 144 hours
Method: 3D spheroid assays. Melanoma spheroids were prepared using the liquid overlay method (Smalley et al. Mol Cancer Ther. 5: 1136-1144 (2006)). Spheroids were treated for 144 hours with either vehicle or 1 μM XL888 before being washed (3 times in media) and treated with calcein-AM and ethidium bromide (Molecular Probes, Eugene, Oreg.) for 1 hour at 37° C., to according to the manufacturer's instructions. Pictures of the invading spheroids were taken using a Nikon-300 inverted fluorescence microscope.

[2] = system: HSP90 client and apoptosis proteins in vemurafenib-resistant melanoma cell lines; assay: Western blotting; format: cell-based
Excerpt: Western blotting. Proteins were extracted and blotted for as described previously (Smalley et al., Br. J. Cancer 96:445-9 (2007)). […] The antibodies to IGF1R, PDGFRβ, ARAF, CRAF, phospho-AKT Ser473, total AKT, phospho-ERK, total ERK, cyclin D1, phospho-S6, total S6, phospho-BIM (Ser69), total BIM, HSP70 and MCL-1 were from Cell Signaling Technology (Beverly, Mass.). Anti-26S was purchased from Abcam (Cambridge, Mass.), and the antibody against COT was from Santa Cruz Biotechnology (Santa Cruz, Calif.).

melanoma cell lines = assay: Colony formation assay; format: cell-based; settings: 300 nM, up to 4 weeks; any of the cell lines
Method: Colony formation. Cells (1×10^4 per ml) were grown overnight before being treated with vehicle (DMSO) or XL888 (300 nM) for 4 weeks as described in (Paraiso et al., Br. J. Cancer 102:1724-30 (2010)), and relative colony density was determined by solubilizing the crystal violet dye in 10% acetic acid followed by measurement of absorbance at 450 nm.

[3] = system: chymotrypsin like proteasome activity in M229R and 1205LuR cells; assay: Proteasome-Glo Chymotrypsin-Like Cell Based Assay; settings: 300 nM, 48 hours
Method: Measurement of proteasome activity. M229R and 1205LuR cells were harvested and plated at 7,500 cells per well in a white-walled 96 well plate. […] Proteasome activity was assessed using the Proteasome-Glo Chymotrypsin-Like Cell Based Assay (Promega; Madison, Wis.) and was measured in relative luminescence units (RLU).

[4] = system: vemurafenib resistant melanoma cell lines; assay: Apoptosis, Annexin-V staining and flow cytometry; format: cell-based; settings: 72 or 144 hours
Method: Flow cytometry. […] In some studies, RPMI7951 cells were treated with 300 nM XL888 in the presence or absence of 3 μM vemurafenib and harvested after 24, 48 and 72 hours.

[5] = system: vemurafenib sensitive and naïve cell lines; assay: Cell cycle analysis, propidium iodide flow cytometry; format: cell-based; settings: 300 nM, 24 hours
Method: FIGS. 15A, 15B, 15C, 15D, 15E, 15F, and 15G show the HSP90 inhibitor XL888 blocks the growth and survival of melanoma cell lines with diverse mechanisms of vemurafenib resistance. FIGS. 15A and 15B are graphs showing growth (%) of matched pairs of vemurafenib naïve and resistant melanoma cell lines and melanoma cell lines with intrinsic resistance. In FIG. 15A, cells were treated with increasing concentrations of vemurafenib (1 nM-10 μM: 72 hrs) before being subject to the MTT assay. […] FIGS. 15C to 15E are bar graphs showing the cell cycle effects of XL888 (300 nM: 24 hours) upon vemurafenib sensitive and naïve cell lines. Cells were fixed, stained with propidium iodide and distributions analyzed by flow cytometry. FIG. 15F-G are bar graphs showing that XL888 induced apoptosis in every model of acquired vemurafenib resistance tested. Cells were treated for either 72 or 144 hours with XL888 (300 nM) followed by Annexin-V. Apoptosis was measured by flow cytometry.

[6] = system: FOXO3a in M229R and 1205LuR cells; assay: Immunofluorescent staining; format: cell-based; settings: 48 hours; XL888 300 nM, GDC-0941 3 μM
Method: Immunofluorescent staining. M229R and 1205LuR cells were seeded at 50% confluency onto glass coverslips in a 12 well plate and allowed to adhere overnight. […] Fixed cells were separately stained by incubating overnight with rabbit anti-BIM or anti-FOXO3a antibodies followed by staining with secondary anti-rabbit AF488. Cells were then mounted onto slides with ProLong Gold Antifade containing DAPI (Invitrogen) and imaged with a Leica confocal microscope equipped with a 40x oil immersion lens.

intratumoral HSP70 = assay: LC-MRM analysis of xenograft samples; format: in vivo, BALB SCID mice; settings: 15-days of treatment, 100 mg/kg
Method: Liquid chromatography, multiple reaction monitoring mass (LC-MRM) spectrometry (LC MRM) analysis. LC-MRM was performed as described in (Remily-Wood et al., Proteomics Clin. App. 5:383-96 (2011)). Protein expression was determined using the ratio of peak area of the native peptide to corresponding internal standard; normalization of tissue results was performed using GAPDH to control for cellularity (Table 9). Data were then normalized to the pretreatment (cell lines) or vehicle controls (tissue) and plotted to show the changes in expression after drug treatment.
Xenograft experiments. BALB SCID mice (The Jackson Laboratory, Bar Harbor, Me.) were subcutaneously injected with 2.5×10^6 cells per mouse (resuspended in 111 μL L-15 media, 10 mM HEPES, 37.5 μL Matrigel). Tumors were grown to approximately 100 mm^3 prior to dosing. Mice were treated with either 100 mg XL888/kg (n=5) or an equivalent volume of vehicle (10 mM HCl), 3 times per week by oral gavage. Mouse weights and tumor volumes (L×W2/2) were measured 3 times per week. Upon completion of the experiment, vehicle and drug treated tumor biopsies were processed for LC-MRM analysis (as above).

Compound: CC[C@@H](C)Nc1cc(C(=O)N[C@@H]2C[C@H]3CC[C@@H](C2)N3c2ccc(C(=O)C3CC3)cn2)c(C)cc1C(N)=O [XL888, 5-((R)-sec-butylamino)-N1-((1R,3s,5S)-8-(5-(cyclopropanecarbonyl)pyridin-2-yl)-8-azabicyclo[3.2.1]octan-3-yl)-2-methylterephthalamide]
- cell death in 3D spheroids [1]: effective at inducing cell death
- 26S proteasome, Western blot ([2]; 300 nM, 48 hours): partly degrade the 26S proteasome
- BIM phosphorylation at Ser69 ([2]; 300 nM, 48 hours, all cell lines tested apart from M249R): decreased BIM phosphorylation at Ser69
- client protein degradation and signaling ([2]; 300 nM, 48 hours, all cell lines with acquired BRAF inhibitor resistance): degradation of IGF1R, PDGFRβ, ARAF, CRAF and cyclin D1 and the inhibition of AKT, ERK and S6 signaling
- BIM expression ([2]; 300 nM, 48 hours, entire cell line panel): increased BIM expression across the entire cell line panel
- HSP70 expression, Western blot ([2]; 300 nM, 48 hours, every cell line evaluated): increases in HSP70 expression
- expression of Mcl-1, Western blot ([2]; 300 nM, 48 hours, resistance through PDGFRβ, COT overexpression and two unknown mechanisms): marked decrease in the expression of Mcl-1
- COT and cyclin D1 expression ([2]; intrinsically vemurafenib-resistant RPMI7951 and WM39, respectively): degrade both COT and cyclin D1
- colony formation (melanoma cell lines): no signs of colony formation
- inhibiting chymotrypsin like proteasome activity [3]: less effective than the MEK+PI3K inhibitor combination
- apoptosis ([4]; 300 nM, every cell line tested): > 66%
- apoptosis versus MEK, PI3K and MEK+PI3K inhibitors ([4]; resistance through COT, PDGFRβ overexpression and two unknown mechanisms): significantly higher levels of apoptosis than each of the other drug combinations
- cell cycle effect ([5]; WM164, M229, M229R, M249, M249R, 1205Lu, WM39): G1-phase cell cycle arrest
- cell cycle effect ([5]; WM164R, 1205LuR, RPMI 7951): G2/M phase cell cycle arrest
- nuclear accumulation of FOXO3a [6]: highly efficient at increasing nuclear accumulation of FOXO3a
- increase in intratumoral HSP70 expression compared to controls (intratumoral HSP70): 8.6 fold
